Target: T1, α4β7/MAcDAM-1 (Homo sapiens, UniProt P13612+P26010)
T1 sequence (P13612 34-1032): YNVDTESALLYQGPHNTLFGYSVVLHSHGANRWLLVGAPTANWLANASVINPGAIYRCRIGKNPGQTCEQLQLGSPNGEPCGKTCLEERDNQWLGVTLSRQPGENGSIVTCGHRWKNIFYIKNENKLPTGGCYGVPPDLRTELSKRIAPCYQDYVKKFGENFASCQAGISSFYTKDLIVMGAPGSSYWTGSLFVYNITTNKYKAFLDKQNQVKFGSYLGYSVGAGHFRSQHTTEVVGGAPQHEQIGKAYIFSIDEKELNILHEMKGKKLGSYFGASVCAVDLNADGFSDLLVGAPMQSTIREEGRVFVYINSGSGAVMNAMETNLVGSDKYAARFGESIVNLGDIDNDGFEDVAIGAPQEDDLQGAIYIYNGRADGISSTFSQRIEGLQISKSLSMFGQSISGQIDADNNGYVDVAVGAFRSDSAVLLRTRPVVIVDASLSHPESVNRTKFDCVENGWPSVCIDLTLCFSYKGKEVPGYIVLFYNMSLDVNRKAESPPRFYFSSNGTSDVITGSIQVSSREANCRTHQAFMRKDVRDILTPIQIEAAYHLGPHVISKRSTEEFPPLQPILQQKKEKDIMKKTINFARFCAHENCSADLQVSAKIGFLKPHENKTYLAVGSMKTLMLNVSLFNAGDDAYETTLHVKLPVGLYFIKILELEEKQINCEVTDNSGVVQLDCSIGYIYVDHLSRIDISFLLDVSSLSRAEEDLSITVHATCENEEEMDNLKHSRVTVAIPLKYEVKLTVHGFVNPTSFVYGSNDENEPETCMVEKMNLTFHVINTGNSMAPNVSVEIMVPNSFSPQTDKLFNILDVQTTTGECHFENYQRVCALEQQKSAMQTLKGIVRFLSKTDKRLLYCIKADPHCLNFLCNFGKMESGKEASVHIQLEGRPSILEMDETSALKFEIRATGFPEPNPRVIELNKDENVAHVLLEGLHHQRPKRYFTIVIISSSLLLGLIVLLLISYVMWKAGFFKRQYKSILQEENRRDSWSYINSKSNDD
T1 sequence (P26010 20-798): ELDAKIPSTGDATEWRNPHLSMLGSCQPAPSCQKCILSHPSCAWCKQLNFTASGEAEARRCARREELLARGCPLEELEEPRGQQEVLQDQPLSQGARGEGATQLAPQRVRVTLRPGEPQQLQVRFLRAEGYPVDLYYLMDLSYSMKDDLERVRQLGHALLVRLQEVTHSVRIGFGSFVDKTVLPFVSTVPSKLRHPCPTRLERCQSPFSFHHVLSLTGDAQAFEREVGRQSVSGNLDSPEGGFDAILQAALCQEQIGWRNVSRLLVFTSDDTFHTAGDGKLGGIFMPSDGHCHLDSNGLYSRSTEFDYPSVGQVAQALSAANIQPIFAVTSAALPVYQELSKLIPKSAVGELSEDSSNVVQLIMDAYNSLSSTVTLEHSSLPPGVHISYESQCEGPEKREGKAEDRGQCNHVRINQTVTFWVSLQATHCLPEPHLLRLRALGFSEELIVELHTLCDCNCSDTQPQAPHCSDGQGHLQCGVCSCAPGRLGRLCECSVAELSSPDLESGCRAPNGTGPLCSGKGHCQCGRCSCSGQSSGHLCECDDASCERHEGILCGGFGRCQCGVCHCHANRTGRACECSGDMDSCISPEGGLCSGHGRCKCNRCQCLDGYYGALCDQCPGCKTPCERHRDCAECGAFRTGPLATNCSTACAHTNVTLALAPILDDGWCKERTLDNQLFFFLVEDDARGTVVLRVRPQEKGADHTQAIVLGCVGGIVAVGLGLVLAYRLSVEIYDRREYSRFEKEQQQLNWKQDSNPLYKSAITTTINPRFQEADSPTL
Assay: Integrin activation, adhesion α4β7/MAcDAM-1
Type: cell-based
Conditions: 50% serum; n = 3; read-out: Integrin Selectivity EC50 α4β7/MAcDAM-1
From the text: Activating all integrins is necessary for firm endothelial cell adhesion for extravasation.

In the case of `O=C(OCCOCCOCCOC(=O)N(Cc1cccs1)Cc1cccs1)N(Cc1cccs1)Cc1cccs1` [Compound 1, 3-oxo-1-(2-thienyl)-2-(2-thienylmethyl)-4,7,10-trioxa-2-azadodecan-12-yl bis(2-thienylmethyl)carbamate], the EC50 is reported as 10 ± 2.1 µM.
